This is an account of results in ChEMBL document CHEMBL1201862, “PubChem BioAssay data set” (2004).

The target of test [1] is Metabotropic glutamate receptor 3 (Rattus norvegicus, UniProt P31422). In words: mGlu3 negative allosteric modulator potency, dose response, HEK/GIRK cells, thallium flux, rat (AID 651839). In kind it is functional.
Test [2] is described as follows: HEK293T cytotoxicity, dose response, cytotoxicity control for miR-122 modulator project, cell-based, inhibitor set, cherry-pick, set 2 (AID 720697). In kind it is functional.
Test [3] can be described thus: HEK293T cytotoxicity, dose response, cytotoxicity control for miR-122 modulator project, cell-based, activator set, cherry-pick (AID 720690).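 Further: HEK293T human cells scored for general mammalian cytotoxicity.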 The format is functional.
Test [4] in a line: miR-122 activators in hepatoma reporter cells, dose response, cell-based, Huh7 psiCHECK-miR122, Renilla luciferase, cherry-picked (AID 651956).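 Further: huh7 hepatoma cells stably carrying a psiCHECK-2 miR-122 sensor plasmid; renilla luciferase signal reporting endogenous miR-122 activity after 48 h compound exposure.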 In kind it is functional.
For test [5], the target named is Protein disulfide-isomerase (Homo sapiens, UniProt P07237). In words: PDI inhibitors, insulin turbidity readout, confirmation, biochemical, dry powder samples, set 2 (AID 652146).
Another test has as its target Beta-galactosidase (Escherichia coli, UniProt Q8VNN2). The test is described as follows: Dose response counterscreen for EBI2 assay utilizing the enzyme, b-galactosidase. In kind it is functional. (In general: Counterscreens check selectivity or assay interference.)
A short description of test [6]: CFTR ΔF508 corrector activity in bronchial cells, dose response, human bronchial epithelial cells, plate reader, cherry-pick, two tests (AID 743267). In kind it is functional, cell-based.
Test [7] in a line: THP-1 cell cytotoxicity, dose response, cytotoxicity control for Vif-APOBEC3G degradation inhibitor project, THP-1 cells (AID 1117359). To be noted: Human immunodeficiency virus 1, THP-1. The format is functional.
Test [8] deals with T1, Rac GTPase-activating protein 1 (Homo sapiens, UniProt Q9H0H5).
T1 sequence (Q9H0H5 whole entry): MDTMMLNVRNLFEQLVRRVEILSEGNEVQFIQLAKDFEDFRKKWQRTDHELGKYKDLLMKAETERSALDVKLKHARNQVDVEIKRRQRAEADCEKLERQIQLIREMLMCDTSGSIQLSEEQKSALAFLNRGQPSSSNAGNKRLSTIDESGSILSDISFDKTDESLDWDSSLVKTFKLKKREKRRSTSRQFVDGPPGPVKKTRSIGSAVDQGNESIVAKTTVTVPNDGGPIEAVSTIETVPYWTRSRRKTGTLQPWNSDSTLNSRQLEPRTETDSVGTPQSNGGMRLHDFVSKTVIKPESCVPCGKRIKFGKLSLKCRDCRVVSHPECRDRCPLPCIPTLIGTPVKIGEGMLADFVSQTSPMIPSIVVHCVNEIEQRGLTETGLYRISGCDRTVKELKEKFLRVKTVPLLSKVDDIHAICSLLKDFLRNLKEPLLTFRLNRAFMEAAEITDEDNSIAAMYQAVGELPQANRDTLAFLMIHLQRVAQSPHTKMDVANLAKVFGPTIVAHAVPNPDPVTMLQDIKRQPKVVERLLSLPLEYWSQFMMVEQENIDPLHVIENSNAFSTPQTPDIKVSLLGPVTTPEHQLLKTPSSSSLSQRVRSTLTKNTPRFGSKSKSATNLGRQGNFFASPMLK
In words: MgcRacGAP GTPase-activating activity inhibitors, confirmation, biochemical, ADP Hunter fluorescence, primary and confirmatory (AID 624330). In kind it is functional.

The nature of test [9]: A549 cell cytotoxicity, dose response, cytotoxicity control, CellTiter-Glo luminescence, dry powder, set 3 (AID 743146). In kind it is functional, cell-based. (In general: ATP-based viability assays read luminescence as a measure of living cells.)
Test [10] can be described thus: HEK293 cell cytotoxicity, dose response, cytotoxicity control, ATP luminescence, dry powder, Set6 (AID 743142). In kind it is functional, cell-based.

Activity calls are given as the source filed them.

Chain of Beta-galactosidase (Q8VNN2 whole entry): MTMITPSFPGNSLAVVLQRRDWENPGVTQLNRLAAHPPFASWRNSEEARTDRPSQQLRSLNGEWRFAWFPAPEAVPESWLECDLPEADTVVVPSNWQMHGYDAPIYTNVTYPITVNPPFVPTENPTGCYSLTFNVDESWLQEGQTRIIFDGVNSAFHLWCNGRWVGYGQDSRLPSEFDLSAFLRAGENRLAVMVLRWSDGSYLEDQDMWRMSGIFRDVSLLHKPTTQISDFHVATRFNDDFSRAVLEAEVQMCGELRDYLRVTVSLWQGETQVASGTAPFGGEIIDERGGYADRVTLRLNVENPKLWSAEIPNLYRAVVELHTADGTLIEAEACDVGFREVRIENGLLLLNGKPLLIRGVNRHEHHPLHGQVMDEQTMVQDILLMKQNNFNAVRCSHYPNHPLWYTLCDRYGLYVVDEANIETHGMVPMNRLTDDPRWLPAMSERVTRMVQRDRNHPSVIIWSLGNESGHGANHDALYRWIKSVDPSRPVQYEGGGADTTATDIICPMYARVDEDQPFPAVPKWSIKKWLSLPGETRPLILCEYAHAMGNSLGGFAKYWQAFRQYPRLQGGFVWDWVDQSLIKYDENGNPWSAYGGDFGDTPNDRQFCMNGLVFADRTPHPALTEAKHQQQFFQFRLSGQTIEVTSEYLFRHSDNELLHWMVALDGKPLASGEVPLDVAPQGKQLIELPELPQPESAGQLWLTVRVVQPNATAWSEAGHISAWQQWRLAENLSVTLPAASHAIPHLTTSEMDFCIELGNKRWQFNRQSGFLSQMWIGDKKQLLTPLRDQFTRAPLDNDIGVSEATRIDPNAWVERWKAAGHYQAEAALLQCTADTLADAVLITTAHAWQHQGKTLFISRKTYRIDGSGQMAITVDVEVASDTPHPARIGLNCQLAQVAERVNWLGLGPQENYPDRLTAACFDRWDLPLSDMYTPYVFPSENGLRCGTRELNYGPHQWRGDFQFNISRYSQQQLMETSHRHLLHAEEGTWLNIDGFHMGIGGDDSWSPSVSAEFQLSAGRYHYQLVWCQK
Chain of Metabotropic glutamate receptor 3 (P31422 whole entry): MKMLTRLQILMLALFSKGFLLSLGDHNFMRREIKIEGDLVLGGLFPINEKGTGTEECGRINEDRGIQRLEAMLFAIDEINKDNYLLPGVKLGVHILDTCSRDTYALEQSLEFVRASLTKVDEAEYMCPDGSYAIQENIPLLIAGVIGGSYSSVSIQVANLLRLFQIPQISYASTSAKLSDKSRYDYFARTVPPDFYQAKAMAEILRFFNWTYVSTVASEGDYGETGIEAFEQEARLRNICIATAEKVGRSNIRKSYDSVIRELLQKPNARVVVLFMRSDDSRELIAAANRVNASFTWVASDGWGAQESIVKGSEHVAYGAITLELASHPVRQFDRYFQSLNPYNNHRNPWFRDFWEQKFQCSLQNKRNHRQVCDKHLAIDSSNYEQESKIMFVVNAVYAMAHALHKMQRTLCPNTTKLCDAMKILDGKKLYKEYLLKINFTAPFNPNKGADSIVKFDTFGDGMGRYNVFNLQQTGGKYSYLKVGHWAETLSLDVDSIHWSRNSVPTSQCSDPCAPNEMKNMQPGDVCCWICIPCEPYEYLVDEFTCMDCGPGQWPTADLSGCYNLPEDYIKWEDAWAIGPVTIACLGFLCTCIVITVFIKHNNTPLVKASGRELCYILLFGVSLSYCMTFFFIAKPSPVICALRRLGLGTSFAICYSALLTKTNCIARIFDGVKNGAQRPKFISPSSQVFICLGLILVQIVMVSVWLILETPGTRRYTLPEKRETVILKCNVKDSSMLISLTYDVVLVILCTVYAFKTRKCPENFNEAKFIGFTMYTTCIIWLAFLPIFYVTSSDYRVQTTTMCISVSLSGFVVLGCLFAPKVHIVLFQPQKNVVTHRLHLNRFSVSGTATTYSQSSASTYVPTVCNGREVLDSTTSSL
Chain of Protein disulfide-isomerase (P07237 whole entry): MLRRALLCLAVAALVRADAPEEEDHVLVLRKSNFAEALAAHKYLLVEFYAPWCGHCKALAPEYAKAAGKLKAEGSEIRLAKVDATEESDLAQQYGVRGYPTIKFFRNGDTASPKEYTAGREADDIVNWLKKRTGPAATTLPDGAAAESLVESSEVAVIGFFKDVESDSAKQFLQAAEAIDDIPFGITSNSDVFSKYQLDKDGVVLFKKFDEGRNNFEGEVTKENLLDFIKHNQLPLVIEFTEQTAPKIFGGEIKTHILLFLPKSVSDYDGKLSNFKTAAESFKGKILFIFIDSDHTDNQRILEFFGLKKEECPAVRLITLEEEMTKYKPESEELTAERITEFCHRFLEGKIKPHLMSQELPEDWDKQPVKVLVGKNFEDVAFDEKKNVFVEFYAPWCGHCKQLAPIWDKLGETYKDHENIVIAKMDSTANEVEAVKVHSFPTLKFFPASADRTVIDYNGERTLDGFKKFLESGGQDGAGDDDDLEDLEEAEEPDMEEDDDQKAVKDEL

With `COc1ccc(C#Cc2ccc(C(=O)N3CCC[C@@H](CO)C3)cc2)c(F)c1`, in test [1], the IC50 stood at 4.92 µM.

Regarding `C[C@H](CO)N1C[C@H](C)[C@H](CN(C)CC2CCCCC2)Oc2ccc(NC(=O)Nc3ccc(C(F)(F)F)cc3)cc2C1=O`, the AC50 in [2] was 15.1 µM (active); in test [3], 17.1 µM (active); in test [4], 31.5 µM (active).

For the molecule `CCOC(=O)C1(CCOC)CCN(Cc2ccc(O)c(Cl)c2)CC1`, the AC50 in test [5] was > 30 µM (inactive).

On to `COc1ccccc1N1CCN(C(=O)c2cc3c(s2)-c2ccccc2OC3)CC1`, for which the IC50 on Beta-galactosidase was > 80 µM (inactive).

As for `C=CC/N=c1\scc(C)n1/N=C/c1ccc(O)c(O)c1`, in test [6], the AC50 is 50 µM (active). Moreover, the CC50 in [7] was 19.8 µM (active). For the same molecule, the IC50 in [8] was 17.4 µM (active).

In the case of `O=C(CCNC(=O)c1cccc(Cl)c1)N[C@@H]1CCCc2ccccc21`, the AC50 in test [9] was > 52 µM (inactive); in [10], 9.96 µM (active).

The term IC50 denotes the concentration at which inhibition is half-maximal. By AC50 is commonly meant the midpoint of the concentration-response curve, whichever way the signal moves. As a reminder, the CC50 is the concentration at which the toxic effect on the cells reaches its halfway point.
